One test relates to CDC1551 (ΔphoPR). Format: cell-based. The note with it: acidic pH.
The next test relates to CDC1551 katG::Tn mutant. The test is classed as cell-based, Mycobacterium tuberculosis. The note with it: pH 5.7.

Each structure is given as a SMILES string.

In the case of `COc1ccc(NC(=O)c2nc(S(C)(=O)=O)ncc2Cl)cc1Cl` [AC2P36, 5-chloro-N-(3-chloro-4-methoxyphenyl)-2-methylsulfonylpyrimidine-4-carboxamide], the “sensitivity of ΔphoPR mutant vs WT to AC2P36” value with CDC1551 (ΔphoPR) is on record as “no differences were observed between WT or ΔphoPR sensitivity to AC2P36”. The “sensitivity of WT, katG::Tn mutant and complemented strain to AC2P36” value in the test with CDC1551 katG::Tn mutant is given as “No difference was observed between the three strains”.

The record behind these values is publication PMC5562523 (Cell chemical biology, 2017).
